The data set can be described thus: molar heat capacity at constant pressure. The settings on record: 101.33 kPa, Liquid, Small sample (50 mg) DSC.

Numbers after ± are expanded uncertainties.

`CCCC[N+]1(C)CCCC1.N#C[B-](C#N)(C#N)C#N` [1-butyl-1-methylpyrrolidinium tetracyanoborate]: the “molar heat capacity at constant pressure” value reads like this: (298.2 K) 524 ± 53 J/K/mol; (323.2 K) 554 ± 56 J/K/mol.
Turning to `CCCC[n+]1cccc(C)c1.N#C[B-](C#N)(C#N)C#N` [1-butyl-3-methylpyridinium tetracyanoborate], the “molar heat capacity at constant pressure” value is 495 ± 50 J/K/mol (298.2 K) and 524 ± 53 J/K/mol (323.2 K).

These data come from the NIST ThermoML archive (doi:10.1016/j.jct.2011.05.022).
